Measurements from US20140275166A1, “SPINTRAPS AND SPIN LABELS AND THEIR HYDROXYLAMINES FOR PERI- AND POST-MENOPAUSAL SYNDROME” (priority 2013, published 2014).
Like-named read-outs stand apart in the source and are kept apart here.

Legend:
acute ischemic stroke = conditions: animal models versus humans; cited from earlier work
[1] = tested on: perimenopausal symptoms, including hot flashes, sweating, and discomfort; experiment: Oral treatment of peri- and post-menopausal symptoms in one patient; format: in vivo, human
Experimental: The reduced form of TEMPOL (TEMPOL-H) or equivalent pharmacologically-active spin label/spintrap is prepared by mixing together 2 grams of TEMPOL or a pharmacologically effective amount of another spin-label or spin trap such as methynitrosopropane, 20 grams of ascorbic acid or other reducing compound in 100 ml of distilled water. The formulation is used as is. The solution is slightly-bitter. The formulation can be administered diluted in a suitable liquid such as juice, tea, or coffee. An equivalent dry form as 10 mg of tempol mixed with 100 mg of ascorbic acid or equivalent reducing substance can be easily prepared in capsule or tablet form.
One-half ml of the above solution, comprising 10 mg TEMPOL plus 100 mg ascorbic acid, was administered orally 1-3 times a day to a 50 kg person with perimenopausal symptoms, including hot flashes, sweating, and discomfort.
Parental modes of administration such as intravenous, intramuscular, subcutaneous, intraperitoneal, transrectal and so forth are also possible, as are topical modes of administration such as in lotions, creams, gels, and topically-compatible suspensions and solutions.

SHR = conditions: cited from earlier work
[2] = tested on: arterioles from intact and OVE females; conditions: cited from earlier work
[3] = tested on: fibrocystic disease of breast; conditions: in vivo; cited from earlier work
[4] = 10 mg TEMPOL plus 100 mg ascorbic acid orally 1-3 times a day, 50 kg person

CC(C)(C)[N+]([O-])=Cc1ccc(S(=O)(=O)[O-])cc1S(=O)(=O)[O-].[Na+].[Na+] [NXY-059, disulfonyl PBN]
neuroprotective efficacy (acute ischemic stroke): effective in animal models, but not in humans

CC(C)(C)[N+]([O-])=Cc1ccccc1 [Phenylbutylnitrone, 1-alpha-phenyl-tert-butyl nitrone]
efficacy on perimenopausal symptoms ([1]; 100 mg dose per day): also effective

CC1(C)CC(O)CC(C)(C)N1[O] [TEMPOL, 4-hydroxy-TEMPO]
efficacy on perimenopausal symptoms ([1]; Tempol itself, without reducing agent, at the same doses): effective at the same doses | antihypertensive response (SHR; male SHR and female SHR given tempol for the first 15 weeks of life): had an antihypertensive response | antihypertensive response (SHR; postmenopausal female SHR): no response was observed | BP lowering by sex and age (SHR; young female versus young male SHR, and after menopause): more effective in lowering the BP of young female than young male SHR and became less effective after menopause | flow-induced increases in NO and subsequent vasodilation [2]: blunted flow-induced increases in NO and subsequent vasodilation

CC1(C)CC(O)CC(C)(C)N1O [TEMPOL-H, the hydroxylamine reduced form of the nitroxide 4-hydroxy-2,2,6,6-tetramethylpiperidin-1-yloxy]
skin changes typical of menopause ([1]; 10 mg TEMPOL plus 100 mg ascorbic acid orally 1-3 times a day): yet to develop the skin changes typical of menopause | effect on perimenopausal symptoms [1, 4]: disappearance of hot flashes, sweating, and discomfort | time to first results of treatment [1, 4]: 1-2 weeks | symptoms on cessation of treatment ([1]; after long-term relief, treatment stopped): symptoms eventually reappear on cessation of treatment | perimenopausal symptoms during earlier TEMPOL-H treatment for fibrocystic disease of breast ([1]; same patient, menses stopped): had not presented with perimenopausal symptoms | symptoms upon resumption of treatment ([1]; treatment resumed after cessation): symptoms disappear | efficacy in fibrocystic disease of breast [3]: effective
